System: male C57Bl/10 mice
Experiment: Morris water maze task (latency to locate hidden platform)
Type: in vivo
Details: Dose-Response (IP), intraperitoneal, dissolved in saline, 30 minutes prior to testing
Description: The test animals were male C57Bl/10 mice, weighing 17-21 grams at the time of testing. Mice were housed in groups of 10 and had ad lib access to food and water. Mice of this strain appear to be deficient in learning the water maze task and are therefore suitable for use in drug evaluation.[Symons, J.P., Davis, R.E., and Marriott J.G. Life Sciences, 1988, 42, 375-383.] The Morris water maze task requires an animal to attend to spatial cues in order to locate the position of a hidden platform submerged underwater. [Morris, B. G. Learning and Motivation , 1981, 12, 239-260, and Symons, J.P., Davis, R.E., and Marriott J.G. Life Sciences, 1988, 42, 375-383.] The maze consisted of a 60 cm x 60 cm x 60 cm transparent plexiglas chamber filled to a depth of 30 cm, leaving 30 cm of wall extended up from the water surface. The water was made opaque by the addition of powdered milk. The water temperature was maintained at 20 °C. Both distal cues (i.e., standard room objects) and proximal cues (that is, 20 cm x 22 cm unique black and white patterns pasted to the center of each of the four walls of the maze) were used. The submerged platform, 8 x 8 cm, 1 cm below the water's surface was positioned near one of the four corners of the maze. […] The time required for each animal to locate the platform on each of the four trials was recorded (latency). […]

## NC(=O)[C@@H]1CCCN1C(=O)[C@H](Cc1c[nH]cn1)NC(=O)[C@@H]1CCC(=O)N1 [TRH, pGlu-His-ProNH₂]
  Active Dose Range: 0.1 to 0.3 mg/kg

— patent EP0381959B1, “Cyclohexaneacetamide derivatives” (F. HOFFMANN-LA ROCHE AG, priority 1989, dated 1990)
